Common to all, as to format: biochemical
Assay [1] concerns the target T1, Lck (Homo sapiens, UniProt P06239).
T1 construct: Kinases are expressed as either kinase domains or full length constructs; made in house
Description: Kinase inhibition assay (33P transfer), Lck. As to conditions: read-out: Lck-1. An outline of the steps:
(§1)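 Recombinant kinase-domain or full-length fusion proteins (GST or His tag) served as enzyme. Substrate poly(Glu,Tyr) 4:1 or poly(Arg,Ser) 3:1 was bound to the plate; transferred 33P was read by liquid scintillation following acid washing.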

The target in assay [2] is T2, AKT (Homo sapiens, UniProt Q9Y243).
T2 construct: Kinases are expressed as either kinase domains or full length constructs; made in house
Put plainly: Kinase inhibition assay (33P transfer), AKT. Particulars: Table 2, kinase inhibition class; read-out: AKT3-1. In outline:
as §1

The target in assay [3] is T3, IGFR-1 (Homo sapiens, UniProt P08069).
T3 construct: Kinases are expressed as either kinase domains or full length constructs; made in house
Description: Kinase inhibition assay, IGFR-1 (Table 2). Particulars: Table 2, kinase inhibition class.

Assay [4] addresses T4, Itk (Homo sapiens, UniProt Q08881).
T4 construct: Kinases are expressed as either kinase domains or full length constructs; made in house
T4 sequence (Q08881 1-620): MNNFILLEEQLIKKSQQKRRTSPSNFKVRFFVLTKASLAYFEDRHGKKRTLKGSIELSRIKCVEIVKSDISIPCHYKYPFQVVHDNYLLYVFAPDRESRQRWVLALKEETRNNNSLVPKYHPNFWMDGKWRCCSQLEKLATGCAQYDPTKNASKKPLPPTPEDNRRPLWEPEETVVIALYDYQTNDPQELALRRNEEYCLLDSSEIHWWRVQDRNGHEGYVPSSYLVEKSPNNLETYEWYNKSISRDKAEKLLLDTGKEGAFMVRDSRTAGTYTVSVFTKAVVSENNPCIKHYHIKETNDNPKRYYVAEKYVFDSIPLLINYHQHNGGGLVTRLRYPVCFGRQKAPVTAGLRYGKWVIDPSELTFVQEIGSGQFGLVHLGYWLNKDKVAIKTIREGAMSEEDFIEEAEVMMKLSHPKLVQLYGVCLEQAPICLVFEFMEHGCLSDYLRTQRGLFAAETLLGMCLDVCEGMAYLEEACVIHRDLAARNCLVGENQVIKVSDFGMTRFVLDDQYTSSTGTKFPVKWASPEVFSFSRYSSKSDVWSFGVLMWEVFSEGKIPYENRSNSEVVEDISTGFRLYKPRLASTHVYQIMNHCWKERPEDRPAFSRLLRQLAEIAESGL
Description: Kinase inhibition assay (33P transfer), Itk. As to conditions: read-out: Itk-1. An outline of the steps: (§2)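 Radiometric format: recombinant tagged kinase (catalytic domain or whole protein, sometimes combined with regulatory polypeptides) phosphorylates immobilised poly(Glu,Tyr) 4:1 or poly(Arg,Ser) 3:1 using [33P]ATP. Wells are washed in 0.5% phosphoric acid, then counted. IC50 is taken where substrate labelling falls by half.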

Assay [5] has as its target T5, Kdr (Homo sapiens, UniProt P35968).
T5 construct: Kinases are expressed as either kinase domains or full length constructs; made in house
Description: Kinase inhibition assay (33P transfer), Kdr. As to conditions: read-out: KDR-1. In outline:
as §1

The target of assay [6] is T6, EGFR (Homo sapiens, UniProt P00533).
T6 construct: Kinases are expressed as either kinase domains or full length constructs; made in house
Description: Kinase inhibition assay (33P transfer), EGFR. As to conditions: Table 2, kinase inhibition class; read-out: EGFR-1. In outline: as §2

Assay [7] deals with T7, c-Met (Homo sapiens, UniProt P08581).
T7 construct: Kinases are expressed as either kinase domains or full length constructs; made in house
Description: Kinase inhibition assay (33P transfer), c-Met. Particulars: Table 2, kinase inhibition class; read-out: Met-1. An outline of the steps: as §2

The target of assay [8] is T8, Zap-70 (Homo sapiens, UniProt P43403).
T8 construct: Kinases are expressed as either kinase domains or full length constructs; made in house
T8 sequence (P43403 1-619): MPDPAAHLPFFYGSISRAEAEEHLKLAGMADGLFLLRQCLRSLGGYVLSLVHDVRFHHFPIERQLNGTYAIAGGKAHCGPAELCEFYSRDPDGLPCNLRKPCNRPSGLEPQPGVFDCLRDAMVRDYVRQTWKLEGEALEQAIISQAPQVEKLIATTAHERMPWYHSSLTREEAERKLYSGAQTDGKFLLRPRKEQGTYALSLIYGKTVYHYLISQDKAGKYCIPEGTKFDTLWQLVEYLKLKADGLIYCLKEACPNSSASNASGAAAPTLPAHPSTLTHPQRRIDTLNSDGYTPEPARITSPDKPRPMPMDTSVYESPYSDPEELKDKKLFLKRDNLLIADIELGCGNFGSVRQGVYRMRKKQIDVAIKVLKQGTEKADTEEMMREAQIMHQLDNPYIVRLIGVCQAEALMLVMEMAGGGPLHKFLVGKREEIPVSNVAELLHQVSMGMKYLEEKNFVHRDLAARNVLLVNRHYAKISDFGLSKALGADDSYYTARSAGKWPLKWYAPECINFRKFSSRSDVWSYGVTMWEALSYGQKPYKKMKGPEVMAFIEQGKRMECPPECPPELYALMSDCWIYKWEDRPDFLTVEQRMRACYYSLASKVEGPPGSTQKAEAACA
Put plainly: Kinase inhibition assay (33P transfer), Zap-70. Particulars: read-out: Zap-1. An outline of the steps:
as §1

Assay [9] deals with T9, ErbB2 (Homo sapiens, UniProt P04626).
T9 construct: Kinases are expressed as either kinase domains or full length constructs; made in house
Put plainly: Kinase inhibition assay (33P transfer), ErbB2. Particulars: read-out: ErbB2-2. From the text:
The inhibitor compounds described herein are screened in the following manner. Kinases suitable for use in the following protocol to determine kinase activity of the compounds described herein include, -but are not limited to: Lck, Lyn, Src, Fyn, Syk, Zap-70, Itk, Tec, Btk, EGFR, ErbB2, Kdr, Flt-1, Flt-3, Tek, c-Met, InsR, and AKT.
Kinases are expressed as either kinase domains or full length constructs fused to glutathione S-transferase (GST) or polyHistidine tagged fusion proteins in either E. colior Baculovirus-High Five expression systems. They are purified to near homogeneity by affinity chromatography essentially as previously described (Lehr et al., 1996; Gish et al., 1995). In some instances, kinases are co-expressed or mixed with purified or partially purified regulatory polypeptides prior to measurement of activity.
Kinase activity and inhibition are measured essentially by established protocols (Braunwalder et al., 1996). Briefly, The transfer of ^33PO4 from ATP to the synthetic substrates poly(Glu, Tyr) 4:1 or poly(Arg, Ser) 3:1 attached to the bioactive surface of microtiter plates serves as the basis to evaluate enzyme activity. After an incubation period, the amount of phosphate transferred is measured by first washing the plate with 0.5% phosphoric acid, adding liquid scintillant, and then counting in a liquid scintillation detector. The IC50 is determined by the concentration of compound that causes a 50% reduction in the amount of […] incorporated onto the substrate bound to the plate.

Assay [10] concerns the target T10, PDGFRB (Homo sapiens, UniProt P09619).
T10 construct: Kinases are expressed as either kinase domains or full length constructs; made in house
Put plainly: Kinase inhibition assay (33P transfer), PDGFRB. Particulars: read-out: PDGFRB-1.

Some results are limits rather than exact numbers.

T1 sequence (P06239 whole entry, species assumed, the tested form may be a part): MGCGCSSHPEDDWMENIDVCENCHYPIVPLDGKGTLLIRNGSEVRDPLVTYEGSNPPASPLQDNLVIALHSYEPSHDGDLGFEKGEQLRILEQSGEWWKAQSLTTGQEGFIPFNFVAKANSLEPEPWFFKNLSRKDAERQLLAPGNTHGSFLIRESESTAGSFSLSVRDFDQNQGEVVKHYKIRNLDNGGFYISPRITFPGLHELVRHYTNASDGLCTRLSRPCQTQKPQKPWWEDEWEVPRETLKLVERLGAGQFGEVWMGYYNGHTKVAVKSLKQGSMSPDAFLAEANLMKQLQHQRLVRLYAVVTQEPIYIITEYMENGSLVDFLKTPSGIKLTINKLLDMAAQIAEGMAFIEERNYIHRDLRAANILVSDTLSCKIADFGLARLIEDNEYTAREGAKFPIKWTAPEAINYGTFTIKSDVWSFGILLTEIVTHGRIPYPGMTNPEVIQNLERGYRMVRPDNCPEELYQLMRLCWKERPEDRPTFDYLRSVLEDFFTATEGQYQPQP
T10 sequence (P09619 33-1106, species assumed): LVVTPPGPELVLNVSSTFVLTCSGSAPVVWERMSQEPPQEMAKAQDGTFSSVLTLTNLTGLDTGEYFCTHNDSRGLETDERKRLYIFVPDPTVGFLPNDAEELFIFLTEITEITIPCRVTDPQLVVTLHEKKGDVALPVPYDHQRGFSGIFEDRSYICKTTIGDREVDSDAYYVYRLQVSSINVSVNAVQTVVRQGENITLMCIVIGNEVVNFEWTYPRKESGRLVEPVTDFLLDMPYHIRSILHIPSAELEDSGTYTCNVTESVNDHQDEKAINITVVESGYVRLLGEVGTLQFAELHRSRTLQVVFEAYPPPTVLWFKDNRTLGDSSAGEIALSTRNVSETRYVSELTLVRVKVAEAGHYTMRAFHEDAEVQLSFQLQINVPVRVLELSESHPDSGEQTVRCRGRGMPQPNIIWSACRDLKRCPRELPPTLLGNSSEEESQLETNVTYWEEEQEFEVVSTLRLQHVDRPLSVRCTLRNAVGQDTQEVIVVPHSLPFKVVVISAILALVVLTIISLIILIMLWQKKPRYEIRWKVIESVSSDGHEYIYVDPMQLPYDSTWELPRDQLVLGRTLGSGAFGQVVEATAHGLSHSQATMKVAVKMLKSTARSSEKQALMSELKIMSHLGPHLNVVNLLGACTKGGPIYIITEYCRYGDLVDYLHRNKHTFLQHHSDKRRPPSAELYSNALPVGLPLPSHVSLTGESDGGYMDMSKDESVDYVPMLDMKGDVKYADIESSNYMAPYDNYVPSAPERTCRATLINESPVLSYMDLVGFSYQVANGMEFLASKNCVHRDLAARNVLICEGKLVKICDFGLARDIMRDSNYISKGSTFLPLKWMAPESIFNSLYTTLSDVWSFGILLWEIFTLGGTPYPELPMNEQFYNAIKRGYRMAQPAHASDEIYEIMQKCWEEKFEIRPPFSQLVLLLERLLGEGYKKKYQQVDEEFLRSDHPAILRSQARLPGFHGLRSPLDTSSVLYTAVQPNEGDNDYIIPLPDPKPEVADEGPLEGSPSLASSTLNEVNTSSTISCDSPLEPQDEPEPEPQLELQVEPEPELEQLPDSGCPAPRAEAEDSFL
T7 sequence (P08581 25-1390): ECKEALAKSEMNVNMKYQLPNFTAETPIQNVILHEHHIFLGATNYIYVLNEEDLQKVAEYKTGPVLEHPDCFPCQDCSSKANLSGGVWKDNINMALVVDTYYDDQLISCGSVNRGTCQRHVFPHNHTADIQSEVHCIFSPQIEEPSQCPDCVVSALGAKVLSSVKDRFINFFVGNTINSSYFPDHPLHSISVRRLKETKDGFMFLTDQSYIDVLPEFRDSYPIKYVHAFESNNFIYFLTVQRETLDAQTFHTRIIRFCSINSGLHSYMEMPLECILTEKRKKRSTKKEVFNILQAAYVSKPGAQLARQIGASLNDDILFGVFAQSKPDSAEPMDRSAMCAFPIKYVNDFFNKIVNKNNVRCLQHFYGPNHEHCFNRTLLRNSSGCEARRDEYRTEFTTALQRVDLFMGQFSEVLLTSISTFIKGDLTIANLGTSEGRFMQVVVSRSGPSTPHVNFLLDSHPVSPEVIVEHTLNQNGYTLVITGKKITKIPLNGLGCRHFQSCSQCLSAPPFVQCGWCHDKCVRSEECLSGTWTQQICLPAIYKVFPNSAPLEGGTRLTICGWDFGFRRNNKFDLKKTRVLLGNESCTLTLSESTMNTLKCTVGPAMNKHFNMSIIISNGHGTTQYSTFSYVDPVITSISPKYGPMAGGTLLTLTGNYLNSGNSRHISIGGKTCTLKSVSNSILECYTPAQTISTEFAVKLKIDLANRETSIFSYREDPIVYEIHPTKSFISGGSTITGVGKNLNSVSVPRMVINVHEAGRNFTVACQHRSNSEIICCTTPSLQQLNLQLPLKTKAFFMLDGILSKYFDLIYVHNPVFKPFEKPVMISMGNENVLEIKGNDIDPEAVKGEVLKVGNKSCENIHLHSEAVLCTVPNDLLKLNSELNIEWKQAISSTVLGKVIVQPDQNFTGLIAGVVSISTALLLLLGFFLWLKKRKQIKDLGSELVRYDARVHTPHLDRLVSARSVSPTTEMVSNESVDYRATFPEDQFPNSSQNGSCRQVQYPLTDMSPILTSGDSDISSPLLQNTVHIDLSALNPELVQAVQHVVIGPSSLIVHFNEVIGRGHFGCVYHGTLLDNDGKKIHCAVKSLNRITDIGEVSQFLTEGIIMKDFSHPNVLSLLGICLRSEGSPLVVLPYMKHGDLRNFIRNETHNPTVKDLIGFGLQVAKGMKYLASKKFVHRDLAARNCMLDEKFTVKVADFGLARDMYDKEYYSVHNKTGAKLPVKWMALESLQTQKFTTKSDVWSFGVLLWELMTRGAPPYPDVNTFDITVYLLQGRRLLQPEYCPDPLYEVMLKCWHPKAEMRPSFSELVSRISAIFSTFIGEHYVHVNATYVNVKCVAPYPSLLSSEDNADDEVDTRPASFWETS
T2 sequence (Q9Y243 whole entry, the tested form may be a part): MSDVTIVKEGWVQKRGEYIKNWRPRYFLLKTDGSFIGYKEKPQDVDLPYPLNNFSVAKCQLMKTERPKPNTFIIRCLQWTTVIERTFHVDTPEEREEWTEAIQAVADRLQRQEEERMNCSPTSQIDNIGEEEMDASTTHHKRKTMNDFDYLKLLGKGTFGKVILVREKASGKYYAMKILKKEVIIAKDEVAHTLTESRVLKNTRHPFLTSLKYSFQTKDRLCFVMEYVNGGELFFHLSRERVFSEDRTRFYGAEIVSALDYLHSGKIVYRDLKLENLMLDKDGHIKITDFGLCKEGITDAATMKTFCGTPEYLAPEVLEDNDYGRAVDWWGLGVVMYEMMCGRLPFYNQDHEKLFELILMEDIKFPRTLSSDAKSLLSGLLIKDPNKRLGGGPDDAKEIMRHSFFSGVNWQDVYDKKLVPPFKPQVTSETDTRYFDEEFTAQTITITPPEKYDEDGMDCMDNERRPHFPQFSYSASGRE
T5 sequence (P35968 20-1356, species assumed): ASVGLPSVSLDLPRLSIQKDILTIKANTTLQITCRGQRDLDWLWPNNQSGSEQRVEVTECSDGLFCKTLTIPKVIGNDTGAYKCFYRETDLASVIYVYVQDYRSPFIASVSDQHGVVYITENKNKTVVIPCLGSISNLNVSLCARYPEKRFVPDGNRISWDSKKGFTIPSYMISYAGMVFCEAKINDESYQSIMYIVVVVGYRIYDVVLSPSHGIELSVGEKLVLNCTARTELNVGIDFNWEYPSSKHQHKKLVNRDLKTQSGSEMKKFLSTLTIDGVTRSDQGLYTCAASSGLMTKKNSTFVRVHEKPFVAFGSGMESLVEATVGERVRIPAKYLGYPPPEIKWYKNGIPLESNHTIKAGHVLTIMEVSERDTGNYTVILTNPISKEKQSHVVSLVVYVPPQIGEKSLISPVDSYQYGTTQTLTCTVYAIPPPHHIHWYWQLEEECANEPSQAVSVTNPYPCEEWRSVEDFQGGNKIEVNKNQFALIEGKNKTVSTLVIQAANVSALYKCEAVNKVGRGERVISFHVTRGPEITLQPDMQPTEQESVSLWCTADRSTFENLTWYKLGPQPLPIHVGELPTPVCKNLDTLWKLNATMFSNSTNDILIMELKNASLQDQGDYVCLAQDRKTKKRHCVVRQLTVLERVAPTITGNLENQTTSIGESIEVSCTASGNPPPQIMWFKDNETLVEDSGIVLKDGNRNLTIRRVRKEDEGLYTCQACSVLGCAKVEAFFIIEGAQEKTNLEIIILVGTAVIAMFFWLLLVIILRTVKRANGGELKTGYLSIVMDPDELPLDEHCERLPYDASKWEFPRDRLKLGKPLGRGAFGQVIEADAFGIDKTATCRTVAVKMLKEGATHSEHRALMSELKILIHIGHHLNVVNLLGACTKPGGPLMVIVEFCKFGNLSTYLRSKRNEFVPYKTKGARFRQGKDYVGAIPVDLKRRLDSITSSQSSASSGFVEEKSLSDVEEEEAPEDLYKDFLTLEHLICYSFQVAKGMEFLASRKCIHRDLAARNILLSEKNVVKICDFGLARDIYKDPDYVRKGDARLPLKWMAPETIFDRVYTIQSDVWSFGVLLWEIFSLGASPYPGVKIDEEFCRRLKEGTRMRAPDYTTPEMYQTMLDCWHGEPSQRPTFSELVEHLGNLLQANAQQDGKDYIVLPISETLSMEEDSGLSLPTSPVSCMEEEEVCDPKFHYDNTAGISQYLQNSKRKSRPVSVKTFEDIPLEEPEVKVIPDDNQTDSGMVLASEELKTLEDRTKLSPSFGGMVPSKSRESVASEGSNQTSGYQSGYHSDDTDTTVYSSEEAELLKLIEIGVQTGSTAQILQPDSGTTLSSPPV

Consider `CN(c1cccc(Cl)c1)c1ncnc(Nc2cccc(CC(=O)O)c2)n1` [Compound 706], for which the IC50 is more than 12.2 µM in [1]; more than 12.2 µM in assay [2]; more than 12.2 µM in assay [3]; more than 12.2 µM in [4]; less than 1.08 µM in [5]; less than 1.08 µM in assay [6]. Moreover, the IC50 in assay [7] was 1.08 to 6.49 µM; in assay [8], more than 12.2 µM; in assay [9], less than 1.08 µM; in [10], 6.49 to 9.46 µM.

On to `CN(c1cccc(Cl)c1)c1ncnc(Cl)n1` [Compound 701, N-methyl-2-chloro-4(3-chloroanilino)-1,3,5-triazine], for which the IC50 in [1], in assay [2], in [3], in assay [4], in assay [5] and in assay [6] was more than 17.6 µM in each case. Moreover, the IC50 in [7], in assay [8], in assay [9] and in [10] was more than 17.6 µM throughout.

Turning to `COc1ccc(Nc2ncnc(NCCNC(C)=O)n2)cc1OC` [Compound 784], the IC50 in assay [1], in assay [2], in [3], in assay [4], in assay [5] and in [6] was more than 13.5 µM each time. The IC50 in assay [7], in assay [8], in assay [9] and in [10] was more than 13.5 µM each time.

As to `CCN(c1cccc(C)c1)c1ncnc(Nc2cc(OC)c(OC)c(OC)c2)n1` [Compound 537], the IC50 in assay [1] is less than 1.01 µM; in assay [2], more than 11.4 µM; in [3], 1.01 to 6.07 µM; in assay [4], 8.85 to 11.4 µM; in assay [5], less than 1.01 µM; in assay [6], less than 1.01 µM. Also, the IC50 in [7] is 1.01 to 6.07 µM; in assay [8] it was more than 11.4 µM; in [9], 1.01 to 6.07 µM; in assay [10], 1.01 to 6.07 µM.

Regarding `c1ccc(CCNc2ncnc(Nc3ccc4c(cnn4Cc4ccccc4)c3)n2)cc1` [Compound 734], the IC50 in assay [1] was more than 10.7 µM; in assay [2], more than 10.7 µM; in assay [3] it was 5.69 to 8.3 µM; in assay [4], more than 10.7 µM; in assay [5] it was 0.949 to 5.69 µM; in assay [6], more than 10.7 µM. Moreover, the IC50 is 8.3 to 10.7 µM in assay [7], 5.69 to 8.3 µM in [8], 5.69 to 8.3 µM in [9] and more than 10.7 µM in assay [10].

On to `CN(c1cccc(Cl)c1)c1ncnc(Nc2ccc(F)c(C(F)(F)F)c2)n1` [Compound 742], for which the IC50 is more than 11.3 µM in assay [1]; more than 11.3 µM in assay [2]; more than 11.3 µM in assay [3]; more than 11.3 µM in assay [4]; more than 11.3 µM in assay [5]; 1.01 to 6.03 µM in assay [6]. Further, the IC50 in [7], in assay [8], in assay [9] and in assay [10] was more than 11.3 µM each time.

As to `COc1cc(Nc2ncnc(Nc3cccc(CN4CCN(C)CC4)c3)n2)cc(OC)c1OC` [Compound 1047], the IC50 in assay [1], in assay [2], in assay [3], in assay [4], in assay [5] and in assay [6] was more than 9.67 µM throughout. The IC50 in [7], in assay [8], in assay [9] and in assay [10] was more than 9.67 µM throughout.

On to `Cc1cccc(Nc2ncnc(Nc3cc(-c4ccccc4)n[nH]3)n2)c1` [Compound 1012], for which the IC50 in assay [1] is 1.16 to 6.99 µM; in [2], 1.16 to 6.99 µM; in [3], less than 1.16 µM; in [4], 1.16 to 6.99 µM; in assay [5], 1.16 to 6.99 µM; in assay [6] it was less than 1.16 µM. The IC50 was 1.16 to 6.99 µM in assay [7], 10.2 to 13.1 µM in assay [8], 6.99 to 10.2 µM in [9] and 1.16 to 6.99 µM in assay [10].

With `COc1cc(Nc2ncnc(-n3c(NCc4cccc([N+](=O)[O-])c4)nc4ccccc43)n2)cc(OC)c1OC` [Compound 572], the IC50 is 0.757 to 4.54 µM in [1]; more than 8.51 µM in assay [2]; more than 8.51 µM in [3]; more than 8.51 µM in [4]; less than 0.757 µM in [5]; more than 8.51 µM in assay [6]. Further, the IC50 was 6.62 to 8.51 µM in assay [7], more than 8.51 µM in assay [8], 6.62 to 8.51 µM in assay [9] and less than 0.757 µM in assay [10].

For `COc1cc(Nc2ncnc(Nc3cc(-c4ccc(Cl)c(Cl)c4)n[nH]3)n2)cc(OC)c1OC` [Compound 589], the IC50 is 0.819 to 4.91 µM in assay [1]; more than 9.21 µM in [2]; less than 0.819 µM in assay [3]; 4.91 to 7.17 µM in [4]; 0.819 to 4.91 µM in assay [5]; 4.91 to 7.17 µM in assay [6]. For the same molecule, the IC50 in [7] was 7.17 to 9.21 µM; in [8] it was more than 9.21 µM; in assay [9], 4.91 to 7.17 µM; in assay [10] it was more than 9.21 µM.

For the molecule `Nc1ncnc(Nc2ccc3c(cnn3Cc3ccccc3)c2)n1` [Compound 665], the IC50 was more than 14.2 µM in assay [1]; more than 14.2 µM in [2]; more than 14.2 µM in assay [3]; more than 14.2 µM in [4]; more than 14.2 µM in [5]; 1.26 to 7.56 µM in [6]. In addition, the IC50 is more than 14.2 µM in assay [7], more than 14.2 µM in assay [8], 1.26 to 7.56 µM in [9] and more than 14.2 µM in assay [10].

As for `Cc1ccc2c(c1)CCCN2c1ncnc(Nc2cccc(Cl)c2C)n1` [Compound 778], the IC50 in assay [1] was more than 12.3 µM; in assay [2], 1.09 to 6.56 µM; in assay [3], more than 12.3 µM; in assay [4], more than 12.3 µM; in assay [5], 6.56 to 9.57 µM; in [6] it was 6.56 to 9.57 µM. For the same molecule, the IC50 in [7] was 1.09 to 6.56 µM; in assay [8], more than 12.3 µM; in assay [9], 6.56 to 9.57 µM; in [10], more than 12.3 µM.

These data come from US7074789B2, “Kinase inhibitors” (Amgen Inc., priority 1999, dated 2006).
